Results as given in patent US8183364B2, “Substituted porphyrins” (Duke University, priority 2004, dated 2012).

Columns and labels:
[1] = Oxidative degradation in the presence of ascorbic acid under aerobic conditions; assay type: physicochemical; conditions: pH 7.8 (0.05 M tris buffer)
Procedure: Under these conditions porphyrins underwent oxidative degradation. As previously observed (Batinic-Haberle et al, J. Chem. Soc., Dalton Trans., pgs. 2689-2696 (2002)), those porphyrins that are of more positive E1/2 are stabilized in +2 oxidation state and are less prone to oxidative damage. Accordingly, 27% and 24% of MnTE-2-PyP^5+ and MnTMOE-2-PyP^5+ undergo degradation within 2 hours, but only 2% of MnTM,MOE-2-ImP^5+ and MnTDMOE-2-ImP^5+ and 3% of MnTDE-2-ImP^5+.

[2] = system: SOD-deficient JI132 E. coli; test: Aerobic growth of SOD-deficient E. coli; assay type: cell-based
Summary of the method: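 Strains were AB1157 and its sodA sodB mutant JI132, precultured overnight in M9CA at 37 °C, then diluted to 3×10^7 cells/mL in M9CA or, after washing, in 5AA minimal medium. Mn porphyrins at 0.1 to 30 μM were present during aerobic shaking at 37 °C. Growth rate was followed by turbidity at 700 nm.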

[3] = given intravenously; cited from earlier work
[4] = Catalysis of O2.^− dismutation by pulse radiolysis; assay type: biochemical; conditions: pulse radiolysis, pH 7.8, (22 ± 1) °C; kcat ±30%
Procedure: Catalysis of O2.^− dismutation. The catalytic rate constants for the O2.^− dismutation were determined by pulse radiolysis in 0.05 M phosphate buffer (pH 7.8) at (22±1)° C. as previously described (Batinic-Haberle et al, Inorg. Chem. 40:726 (2001)). In the present study 10 mM formate was used as a scavenger for H. atoms and .OH radicals, which leads first to production of CO2.^− radicals and then to O2.^− radicals. This system is known to lead to conversion of all primary radicals of water radiolysis into O2.^−.
Catalysis of O2.^− dismutation. Pulse radiolysis was used to assess the SOD-like activities of the Mn porphyrins studied. The initial concentration of O2.^− produced by the pulse was about 27 μM, and the concentration of the Mn porphyrin was between 0.5 and 5 μM. The dismutation of O2.^− was followed at 280 nm. The catalytic rate constant was determined from the linear dependence of kobs upon the concentration of the catalyst (Batinic-Haberle et al, Inorg. Chem. 40:726 (2001)). All the new compounds have high O2.^− dismuting ability. The magnitude of the catalysis is due to the interplay of the electron-withdrawing effects of quaternized ortho pyridyl or di-ortho imidazolyl groups, favorable electrostatics, and the solvation of the metal site.

[5] = Electrochemistry: cyclic voltammetry of the Mn(III)/Mn(II) redox couple; assay type: physicochemical
Procedure: Electrochemistry. Measurements were performed on a CH Instruments Model 600 Voltammetric Analyzer (Spasojevic and Batinic-Haberle, Inorg. Chim. Acta. 317:230-242 (2001), Batinic-Haberle et al, J. Biol. Chem. 273:24521-24528 (1998), Batinic-Haberle et al, Inorg. Chem. 38:4011-4022 (1999)). A three-electrode system in a small volume cell (0.5 mL to 3 mL), with a 3 mm-diameter glassy carbon button working electrode (Bioanalytical Systems), plus the Ag/AgCl reference and Pt auxiliary electrodes was used. Argon-purged solutions contained 0.05 M phosphate buffer, pH 7.8, 0.1 M NaCl, and 0.5 mM metalloporphyrin. The scan rates were 0.01-0.5 V/s, typically 0.1 V/s. The potentials were standardized against the potassium ferrocyanide/ferricyanide (Kolthof and Tomsicek, J. Phys. Chem. 39:945 (1935)) and/or against MnTE-2-PyP^5+ (Spasojevic and Batinic-Haberle, Inorg. Chim. Acta. 317:230-242 (2001), Batinic-Haberle et al, J. Biol. Chem. 273:24521-24528 (1998), Batinic-Haberle et al, Inorg. Chem. 38:4011-4022 (1999)).
Electrochemistry. All cyclic voltammograms, ascribed to the Mn(III)/Mn(II) redox couple, are reversible. The E1/2 of di-ortho ethylimidazolylporphyrin, MnTDE-2-ImP^5+ is 118 mV more positive than of ortho ethylpyridylporphyrin, MnTE-2-PyP^5+ (+228 mV vs NHE), as a consequence of charge delocalization. A similar difference of 114 mV was seen between their methoxyethyl analogues. Mn porphyrins bearing N-pyridyl substituents of the same length, MnTnBu-PyP^5+ and MnTMOE-2-PyP^5+, have nearly identical E1/2 of +254 and +251 mV vs NHE, which is 26 and 23 mV higher than that of MnTE-PyP^5+.

[6] = stroke model; cited from earlier work
[7] = Thin-layer chromatography on silica gel (retention factor Rf, lipophilicity); assay type: physicochemical; conditions: silica gel TLC, KNO3-saturated H2O/H2O/acetonitrile = 1/1/8
Procedure: Uv/vis spectra of porphyrin ligands and their Mn complexes were taken on a Shimadzu UV-2501-PC spectrophotometer at 25° C. Thin-layer chromatography of ligands and Mn complexes was done using silica gel plates with KNO3satH2O/H2O/acetonitrile=1/1/8.
Thin-layer chromatography. All new methoxyporphyrins are more lipophilic than MnTE-2-PyP^5+ and MnTDE-2-ImP^5+.

**Q.** With `CCn1cc[n+](CC)c1-c1c2nc(c(-c3n(CC)cc[n+]3CC)c3ccc([n-]3)c(-c3n(CC)cc[n+]3CC)c3nc(c(-c4n(CC)cc[n+]4CC)c4ccc1[n-]4)C=C3)C=C2.[Mn+3]` [MnTDE-2-ImP^5+, Mn(III) 5,10,15,20-tetrakis[N,N′-diethylimidazolium-2-yl]porphyrin] as the molecule, how does the “degradation within 2 hours” value [1] read?
**A.** 3%

**Q.** And the “protection of SOD-deficient E. coli” value ([2]; M9CA medium, 1 μM)?
**A.** low protection

**Q.** What about the “protection of SOD-deficient E. coli” value ([2]; M9CA medium, 3 μM) of the same molecule?
**A.** ineffective

**Q.** What about the “protection of SOD-deficient E. coli” value ([2]; M9CA medium, 30 μM) of the same molecule?
**A.** either much higher or near full protection

**Q.** And the “facilitation of aerobic growth of SOD-deficient E. coli, dependence on concentration” value ([2]; M9CA medium, 1-30 μM)?
**A.** concentration-dependent manner

**Q.** What about the “protection of E. coli from oxidative stress” value ([2]; ≦3 μM levels (FIG. 10: 5AA minimal medium)) of the same molecule?
**A.** the least effective

**Q.** And the “passing the spinal cord blood barrier compared to MnTE-2-PyP^5+” value [3]?
**A.** less effective

**Q.** And the “protectiveness in spinal cord injury compared to MnTE-2-PyP^5+” value [3]?
**A.** lacks protectiveness

**Q.** And the “log kcat for O2^− dismutation” value [4]?
**A.** 7.83

**Q.** And the “E1/2 difference of imidazolyl porphyrin vs analogous pyridyl porphyrin” value [5]?
**A.** more than 100 mV

**Q.** And the “Metal-centered redox potential E1/2” value ([5]; Mn(III)/Mn(II), 0.1 M NaCl, 0.05 M phosphate buffer, pH 7.8, ±3 mV)?
**A.** +346 mV vs NHE

**Q.** What about the “E1/2 more positive / higher than that of MnTE-2-PyP^5+” value ([5]; difference vs MnTE-2-PyP^5+ (+228 mV vs NHE)) of the same molecule?
**A.** 118 mV

**Q.** What about the “neurotoxicity lower than the pyridyl compound (MnTE-2-PyP^5+)” value [6] of the same molecule?
**A.** 16 fold

**Q.** What about the “Rf (compound path/solvent path), metal-free porphyrin (in parenthesis)” value ([7]; metal-free ligand of the named Mn porphyrin) of the same molecule?
**A.** 0.23

**Q.** What about the “Rf (compound path/solvent path), Mn complex” value [7] of the same molecule?
**A.** 0.17
